# Data reported in publication PMC10178848, “Modulating fast skeletal muscle contraction protects skeletal muscle in animal models of Duchenne muscular dystrophy” (The Journal of Clinical Investigation, 2023).
# Read-outs that look alike come from different tables or passages of the source.
# System: GRMD plasma proteins
# Format: in vivo, dog
# [1] = Post-Treatment to GRMD baseline, Decreased in GRMD
compound,measurement,setting,value
O=c1ccc(-c2cnc(OCC(F)(F)F)nc2)nn1Cc1cncc(F)c1 [EDG-5506],Change from GRMD Baseline (fraction),"Human Chorionic Gonadotropin (CGA CGB), Post-Treatment to GRMD baseline",2.5964 fraction
same,Change from GRMD Baseline (fraction),"Insulin (INS), EDG-5506 treatment to GRMD baseline",0.2426 fraction
same,Change from GRMD Baseline (fraction),"Insulin (INS), Post-Treatment to GRMD baseline",0.0736 fraction
same,Change from GRMD Baseline (fraction),"Interferon lambda-2 (IFNL2), EDG-5506 treatment to GRMD baseline",0.1683 fraction
same,Change from GRMD Baseline (fraction),"Interferon lambda-2 (IFNL2), Post-Treatment to GRMD baseline",0.4121 fraction
same,Change from GRMD Baseline (fraction),"Interleukin-12 (IL12A IL12B), EDG-5506 treatment to GRMD baseline",0.1563 fraction
same,Change from GRMD Baseline (fraction),"Interleukin-12 (IL12A IL12B), Post-Treatment to GRMD baseline",0.0477 fraction
same,Change from GRMD Baseline (fraction),"Leucine-rich repeat transmembrane protein FLRT2 (FLRT2), EDG-5506 treatment to GRMD baseline",0.1078 fraction
same,Change from GRMD Baseline (fraction),"Leucine-rich repeat transmembrane protein FLRT2 (FLRT2), Post-Treatment to GRMD baseline",-0.1244 fraction
same,Change from GRMD Baseline (fraction),"Megakaryocyte-associated tyrosine-protein kinase (MATK), EDG-5506 treatment to GRMD baseline",0.083 fraction
same,Change from GRMD Baseline (fraction),"Megakaryocyte-associated tyrosine-protein kinase (MATK), Post-Treatment to GRMD baseline",0.0043 fraction
same,Change from GRMD Baseline (fraction),"Mitogen-activated protein kinase 9 (MAPK9), EDG-5506 treatment to GRMD baseline",0.1873 fraction
same,Change from GRMD Baseline (fraction),"Mitogen-activated protein kinase 9 (MAPK9), Post-Treatment to GRMD baseline",-0.0197 fraction
same,Change from GRMD Baseline (fraction),"Myc proto-oncogene protein (MYC), EDG-5506 treatment to GRMD baseline",0.0043 fraction
same,Change from GRMD Baseline (fraction),"Myc proto-oncogene protein (MYC), Post-Treatment to GRMD baseline",0.0245 fraction
same,Change from GRMD Baseline (fraction),"Nascent polypeptide-associated complex subunit alpha (NACA), EDG-5506 treatment to GRMD baseline",-0.0939 fraction
same,Change from GRMD Baseline (fraction),"Nascent polypeptide-associated complex subunit alpha (NACA), Post-Treatment to GRMD baseline",-0.019 fraction
same,Change from GRMD Baseline (fraction),"Neurexin-1-beta (NRXN1), EDG-5506 treatment to GRMD baseline",0.163 fraction
same,Change from GRMD Baseline (fraction),"Neurexin-1-beta (NRXN1), Post-Treatment to GRMD baseline",0.0798 fraction
same,Change from GRMD Baseline (fraction),"Neuropilin-1 (NRP1), EDG-5506 treatment to GRMD baseline",-0.1066 fraction
same,Change from GRMD Baseline (fraction),"Neuropilin-1 (NRP1), Post-Treatment to GRMD baseline",-0.2144 fraction
same,Change from GRMD Baseline (fraction),"Neutrophil elastase (ELANE), EDG-5506 treatment to GRMD baseline",0.113 fraction
same,Change from GRMD Baseline (fraction),"Neutrophil elastase (ELANE), Post-Treatment to GRMD baseline",0.0205 fraction
same,Change from GRMD Baseline (fraction),"Neutrophil-activating peptide 2 (PPBP), EDG-5506 treatment to GRMD baseline",-0.0999 fraction
same,Change from GRMD Baseline (fraction),"Neutrophil-activating peptide 2 (PPBP), Post-Treatment to GRMD baseline",0.0464 fraction
same,Change from GRMD Baseline (fraction),"Osteocalcin (BGLAP), EDG-5506 treatment to GRMD baseline",0.2208 fraction
same,Change from GRMD Baseline (fraction),"Osteocalcin (BGLAP), Post-Treatment to GRMD baseline",-0.0043 fraction
same,Change from GRMD Baseline (fraction),"PILR alpha-associated neural protein (PIANP), EDG-5506 treatment to GRMD baseline",0.0458 fraction
same,Change from GRMD Baseline (fraction),"PILR alpha-associated neural protein (PIANP), Post-Treatment to GRMD baseline",-0.0155 fraction
same,Change from GRMD Baseline (fraction),"Periostin (POSTN), EDG-5506 treatment to GRMD baseline",0.1077 fraction
same,Change from GRMD Baseline (fraction),"Periostin (POSTN), Post-Treatment to GRMD baseline",-0.1102 fraction
same,Change from GRMD Baseline (fraction),"Pleiotrophin (PTN), EDG-5506 treatment to GRMD baseline",0.0122 fraction
same,Change from GRMD Baseline (fraction),"Pleiotrophin (PTN), Post-Treatment to GRMD baseline",-0.0998 fraction
same,"3-hydroxyisobutyrate dehydrogenase, mitochondrial (HIBADH): Change from GRMD Baseline (fraction)",[1],0.0399 fraction
same,14-3-3 protein beta/alpha (YWHAB): Change from GRMD Baseline (fraction),[1],-0.1281 fraction
same,14-3-3 protein sigma (SFN): Change from GRMD Baseline (fraction),[1],-0.1134 fraction
same,72 kDa type IV collagenase (MMP2): Change from GRMD Baseline (fraction),[1],-0.3542 fraction
same,Adrenomedullin (ADM): Change from GRMD Baseline (fraction),[1],-0.0931 fraction
same,Aggrecan core protein (ACAN): Change from GRMD Baseline (fraction),[1],-0.1233 fraction
same,Alpha-synuclein (SNCA): Change from GRMD Baseline (fraction),[1],-0.0439 fraction
same,Apolipoprotein B (APOB): Change from GRMD Baseline (fraction),[1],-0.0228 fraction
same,Appetite-regulating hormone (GHRL): Change from GRMD Baseline (fraction),[1],0.0233 fraction
same,Atrial natriuretic factor (NPPA): Change from GRMD Baseline (fraction),[1],0.0027 fraction
same,BDNF/NT-3 growth factors receptor (NTRK2): Change from GRMD Baseline (fraction),[1],-0.0065 fraction
same,BH3-interacting domain death agonist (BID): Change from GRMD Baseline (fraction),[1],0.0184 fraction
same,Bcl-2-related protein A1 (BCL2A1): Change from GRMD Baseline (fraction),[1],0.0661 fraction
same,Bone morphogenetic protein 6 (BMP6): Change from GRMD Baseline (fraction),[1],-0.0925 fraction
same,Bone morphogenetic protein 10 (BMP10): Change from GRMD Baseline (fraction),[1],-0.0513 fraction
same,C-X-C motif chemokine 10 (CXCL10): Change from GRMD Baseline (fraction),[1],0.0358 fraction
same,C-type mannose receptor 2 (MRC2): Change from GRMD Baseline (fraction),[1],-0.1031 fraction
same,CD166 antigen (ALCAM): Change from GRMD Baseline (fraction),[1],0.0066 fraction
same,Cadherin-5 (CDH5): Change from GRMD Baseline (fraction),[1],-0.1425 fraction
same,Carboxypeptidase E (CPE): Change from GRMD Baseline (fraction),[1],0.0109 fraction
same,Cell adhesion molecule 1 (CADM1): Change from GRMD Baseline (fraction),[1],-0.1579 fraction
same,Chromogranin-A (CHGA): Change from GRMD Baseline (fraction),[1],0.0248 fraction
same,Ciliary neurotrophic factor receptor subunit alpha (CNTFR): Change from GRMD Baseline (fraction),[1],-0.0624 fraction
same,Ck-beta-8-1 (CCL23): Change from GRMD Baseline (fraction),[1],0.0454 fraction
same,Coiled-coil domain-containing protein 80 (CCDC80): Change from GRMD Baseline (fraction),[1],0.0372 fraction
same,Collagen alpha-1(VIII) chain (COL8A1): Change from GRMD Baseline (fraction),[1],0.1221 fraction
same,Collagenase 3 (MMP13): Change from GRMD Baseline (fraction),[1],-0.3148 fraction
same,Collectin-12 (COLEC12): Change from GRMD Baseline (fraction),[1],-0.0046 fraction
same,Complement component C1q receptor (CD93): Change from GRMD Baseline (fraction),[1],-0.1418 fraction
same,Complement decay-accelerating factor (CD55): Change from GRMD Baseline (fraction),[1],0.0605 fraction
same,Contactin-1 (CNTN1): Change from GRMD Baseline (fraction),[1],-0.0113 fraction
same,Corticotropin (POMC): Change from GRMD Baseline (fraction),[1],0.0912 fraction
same,Cytotoxic and regulatory T-cell molecule (CRTAM): Change from GRMD Baseline (fraction),[1],0.2824 fraction
same,Dickkopf-related protein 1 (DKK1): Change from GRMD Baseline (fraction),[1],-0.0925 fraction
same,Dickkopf-related protein 4 (DKK4): Change from GRMD Baseline (fraction),[1],-0.1272 fraction
same,E3 ubiquitin-protein ligase ZNRF3 (ZNRF3): Change from GRMD Baseline (fraction),[1],0.0469 fraction
same,Ephrin type-A receptor 5 (EPHA5): Change from GRMD Baseline (fraction),[1],-0.1823 fraction
same,Ephrin-A2 (EFNA2): Change from GRMD Baseline (fraction),[1],-0.0773 fraction
same,Ephrin-A5 (EFNA5): Change from GRMD Baseline (fraction),[1],-0.1613 fraction
same,Epidermal growth factor receptor (EGFR): Change from GRMD Baseline (fraction),[1],-0.0135 fraction
same,Estradiol 17-beta-dehydrogenase 1 (HSD17B1): Change from GRMD Baseline (fraction),[1],0.0729 fraction
same,"Fatty acid-binding protein, epidermal (FABP5): Change from GRMD Baseline (fraction)",[1],0.3761 fraction
same,Fc receptor-like protein 3 (FCRL3): Change from GRMD Baseline (fraction),[1],-0.0287 fraction
same,GDNF family receptor alpha-2 (GFRA2): Change from GRMD Baseline (fraction),[1],-0.0362 fraction
same,Galectin-8 (LGALS8): Change from GRMD Baseline (fraction),[1],0.1492 fraction
same,Galectin-9 (LGALS9): Change from GRMD Baseline (fraction),[1],-0.0107 fraction
same,Gamma-enolase (ENO2): Change from GRMD Baseline (fraction),[1],-0.0983 fraction
same,Gastrin-releasing peptide (GRP): Change from GRMD Baseline (fraction),[1],0.0411 fraction
same,Glutamate carboxypeptidase 2 (FOLH1): Change from GRMD Baseline (fraction),[1],0.145 fraction
same,Glypican-2 (GPC2): Change from GRMD Baseline (fraction),[1],0.075 fraction
same,Gremlin-1 (GREM1): Change from GRMD Baseline (fraction),[1],0.1318 fraction
same,Growth/differentiation factor 8 (MSTN): Change from GRMD Baseline (fraction),[1],0.065 fraction
same,Growth/differentiation factor 11/8 (GDF11 MSTN): Change from GRMD Baseline (fraction),[1],-0.0539 fraction
same,Hemoglobin (HBA1 HBB): Change from GRMD Baseline (fraction),[1],-0.0209 fraction
same,Heparin cofactor 2 (SERPIND1): Change from GRMD Baseline (fraction),[1],0.014 fraction
same,Hepatitis A virus cellular receptor 2 (HAVCR2): Change from GRMD Baseline (fraction),[1],0.0719 fraction
same,High affinity immunoglobulin gamma Fc receptor I (FCGR1A): Change from GRMD Baseline (fraction),[1],0.0477 fraction
same,Histone-lysine N-methyltransferase EHMT2 (EHMT2): Change from GRMD Baseline (fraction),[1],-0.0469 fraction
same,Hyaluronan and proteoglycan link protein 1 (HAPLN1): Change from GRMD Baseline (fraction),[1],-0.1275 fraction
same,Insulin-like growth factor 1 receptor (IGF1R): Change from GRMD Baseline (fraction),[1],-0.1027 fraction
same,Integrin alpha-V: beta-5 complex (ITGAV ITGB5): Change from GRMD Baseline (fraction),[1],0.0267 fraction
same,Interleukin-4 receptor subunit alpha (IL4R): Change from GRMD Baseline (fraction),[1],0.0286 fraction
same,Interleukin-18-binding protein (IL18BP): Change from GRMD Baseline (fraction),[1],-0.0841 fraction
same,Interstitial collagenase (MMP1): Change from GRMD Baseline (fraction),[1],0.1983 fraction
same,Leucine-rich repeat transmembrane neuronal protein 3 (LRRTM3): Change from GRMD Baseline (fraction),[1],0.0593 fraction
same,Limbic system-associated membrane protein (LSAMP): Change from GRMD Baseline (fraction),[1],-0.0633 fraction
same,Lymphocyte activation gene 3 protein (LAG3): Change from GRMD Baseline (fraction),[1],0.8111 fraction
same,Lysosome membrane protein 2 (SCARB2): Change from GRMD Baseline (fraction),[1],0.1572 fraction
same,MHC class I polypeptide-related sequence B (MICB): Change from GRMD Baseline (fraction),[1],0.6204 fraction
same,Matrilin-2 (MATN2): Change from GRMD Baseline (fraction),[1],-0.1616 fraction
same,Melanoma-derived growth regulatory protein (MIA): Change from GRMD Baseline (fraction),[1],-0.1058 fraction
same,Moesin (MSN): Change from GRMD Baseline (fraction),[1],0.1568 fraction
same,Muellerian-inhibiting factor (AMH): Change from GRMD Baseline (fraction),[1],0.0468 fraction
same,NKG2D ligand 1 (ULBP1): Change from GRMD Baseline (fraction),[1],-0.0033 fraction
same,NT-3 growth factor receptor (NTRK3): Change from GRMD Baseline (fraction),[1],-0.1478 fraction
same,Netrin receptor UNC5C (UNC5C): Change from GRMD Baseline (fraction),[1],-0.0587 fraction
same,Neurogenic locus notch homolog protein 2 (NOTCH2): Change from GRMD Baseline (fraction),[1],0.0095 fraction
same,Neurogenic locus notch homolog protein 3 (NOTCH3): Change from GRMD Baseline (fraction),[1],-0.0751 fraction
same,Nuclear receptor subfamily 1 group D member 1 (NR1D1): Change from GRMD Baseline (fraction),[1],0.0266 fraction
same,Phospholipase A2 (PLA2G1B): Change from GRMD Baseline (fraction),[1],-0.0833 fraction
same,Placenta growth factor (PGF): Change from GRMD Baseline (fraction),[1],-0.1111 fraction
same,Plasminogen (PLG): Change from GRMD Baseline (fraction),[1],0.0803 fraction
same,PolyUbiquitin K63-linked (UBC): Change from GRMD Baseline (fraction),[1],0.2532 fraction
same,Proteasome activator complex subunit 3 (PSME3): Change from GRMD Baseline (fraction),[1],0.0489 fraction
same,Protein S100-A4 (S100A4): Change from GRMD Baseline (fraction),[1],-0.1235 fraction
same,Protein amnionless (AMN): Change from GRMD Baseline (fraction),[1],0.002 fraction
